{"source": "patent US20260337246A1", "about": "“METHODS FOR TREATING OBESITY” (Zealand Pharma A/S, priority 2022, published 2026)", "experiment": "Predicted half-life in humans", "data": [{"smiles": "CC[C@H](C)[C@H](NC(=O)[C@H](Cc1ccccc1)NC(=O)[C@H](C)NC(=O)[C@H](CCC(N)=O)NC(=O)[C@H](C)NC(=O)[C@H](C)NC(=O)[C@H](CCCCNC(=O)COCCOCCNC(=O)COCCOCCNC(=O)CN1CCN(C(=O)CCCCCCCCCCCCCCCCCCC(=O)O)CC1)NC(=O)[C@H](CCCCN)NC(=O)[C@H](CC(=O)O)NC(=O)[C@H](CC(C)C)NC(=O)[C@H](CCC(=O)O)NC(=O)[C@@H](NC(=O)[C@H](CO)NC(=O)[C@H](Cc1ccc(O)cc1)NC(=O)[C@H](CC(=O)O)NC(=O)[C@H](CO)NC(=O)[C@@H](NC(=O)[C@H](Cc1ccccc1)NC(=O)[C@@H](NC(=O)CNC(=O)[C@H](CCC(=O)O)NC(=O)C(C)(C)NC(=O)[C@@H](N)Cc1ccc(O)cc1)[C@@H](C)O)[C@@H](C)CC)[C@@H](C)CC)C(=O)N[C@@H](CCC(=O)O)C(=O)N[C@@H](Cc1c[nH]c2ccccc12)C(=O)N[C@@H](CC(C)C)C(=O)N[C@@H](CC(C)C)C(=O)N[C@@H](C)C(=O)N[C@@H](CCC(N)=O)C(=O)NCC(=O)N1CCC[C@H]1C(=O)N[C@@H](CO)C(=O)N[C@@H](CO)C(=O)NCC(=O)N[C@@H](C)C(=O)N1CCC[C@H]1C(=O)N1CCC[C@H]1C(=O)N1CCC[C@H]1C(=O)N[C@@H](CO)C(N)=O", "note": "[Compound 41]", "values": [{"measurement": "predicted half-life (in words)", "value": "half-life supporting once-weekly dosing in humans"}]}]}
